Data reported in patent US20230390176A1, “Cosmetic Skin and Medical Cream” (Protecta-Skincare, Inc., priority 2021, published 2023).

Assays:
[1] = disclosed in U.S. Pat. No. 9,045,474; cited from earlier work
human keratinocytes = experiment: lifespan of human keratinocytes with YEL002; type: cell-based; details: application of the active ingredient YEL002

COc1ccc2cc(-c3nc4ccc(C)cn4c3NCc3ccco3)c(=O)[nH]c2c1 [YEL002]
mitigating tissue damage induced by an agent [1]: effective in mitigating tissue damage | human keratinocytes live longer (anti-aging) (human keratinocytes): 15%
